Data from US20250127699A1, “One Pot Process for Preparing 'Grit-Free' Solid Cleansing Compositions” (GALAXY SURFACTANTS LTD., priority 2023, published 2025).

What was measured:
Experiment in all cases: Minimum inhibitory concentration
Format in all cases: cell-based
Conditions in all cases: at pH 5.5, 1% solution
[1] = tested on: Candida albicans ATCC 10231
Text: (§1) These gentle antimicrobials are well-established in personal care industry for their skin and scalp care benefits that stem from their broad range of antimicrobial activity. These are mostly deployed in a variety of ‘liquid’ wash formulations (body wash/hair wash) and sometimes in ‘leave-on’ creams and lotions (anti-acne). […] These two lipidated glycines, alone as well as when combined together, show remarkable activity against Candida albicans and Candida glabrata yeast (vaginal candidiasis, the yeast infection) and Gardnerella vaginalis (a Gram-variable bacterium that is a causative microbe for bacterial vaginosis). […] These two N-acyl glycines, akin to skin fatty acids, are devoid of any structural feature, like halogen atom or a heterocycle, that can be a potential hazard to the environment and living systems. […] The N-acyl glycine alone or in combination can be used up to 4.0% by weight of the total composition. The traditional environmentally toxic chlorinated antimicrobials for cleansing hygiene bars such as Chlorhexidne, Triclosan, Chloroxylenol, Climbazole, Triclocarban (banned in 2017) or other traditional anti-dandruff (antifungal) agents like Climbazole or Octopirox (monoethanol amine salt of piroctone), Zinc pyrithion (now banned in EU) etc. generate unsalvageable waste at every step of the multistep syntheses. In contrast to the facts (hazardous synthesis and toxicity) of traditional antimicrobials for solid cleansers, the lipidated glycines, that are part of solid compositions of the present invention, are manufactured by green chemistry without generating any unsalvageable/non-disposable waste as taught by IN patent 362888. Also, it is to be noted that N-acyl glycines are biodegradable and environmentally benign. These two lipidated glycines (Formula I and Formula II) are organic acids and by adding them in the second stage of processing when the mass of the first stage is being kneaded with limited amount of water in a sigma blender, helps to achieve the desired pH of the final solid cleanser. pH of the final solid cleanser can be brought down from 6.0 to 4.0 by incorporating these acyl glycines at an amount of about 0.5% to 4.0% of the total composition. The two N-acyl glycines can be used individually or in a combination. Examples 1 to 9 deploy either N-capryloyl glycine or N-undecylenoyl glycine, however, Example 10 to 13 use both of N-capryloyl glycine and N-undecylenoyl glycine. Higher % of capryloyl glycine (around 3.0% of the total composition) results in lower pH that is intended for anti-acne or feminine intimate hygiene wash as exemplified in Example 3. Minimum inhibitory concentrations of capryloyl glycine (CG) and undecylenoyl glycine (UG) and their combination (CG-UG) in 1:1 molar ratio using 1% solution at pH 5.5 are given in Table 1. […] The MIC numbers (less than 0.1%) for the N-acyl glycines against Gardnerella bacterium are extremely good. […] The preferred antimicrobials for the solid cleansers of the present invention are the combination of N-capryloyl glycine and N-undecylenoyl glycine in the molar ratio of 1:1.

[2] = tested on: Staphylococcus hominis MTCC 8980
Text: as §1

[3] = tested on: Propionibacterium acnes MTCC 1951
Text: as §1

[4] = tested on: Escherichia coli ATCC 8739
Text: as §1

[5] = tested on: Pseudomonas aeruginosa ATCC 15442
Text: as §1

[6] = tested on: Staphylococcus aureus ATCC 6538
Text: as §1

[7] = tested on: Staphylococcus epidermidis NCIM 2493
Text: as §1

[8] = tested on: Candida glabrata ATCC 66032
Text: as §1

[9] = tested on: Corynebacterium xerosis ATCC 373
Text: as §1

[10] = tested on: Gardnerella vaginalis ATCC 14018
Text: as §1

[11] = tested on: Malassezia furfur ATCC 14521
Text: as §1

[12] = tested on: Burkholderia cepacia ATCC 25416
Text: as §1

[13] = tested on: Micrococcus luteus NCIM 2103
Text: as §1

[14] = tested on: Aspergillus niger ATCC 16404
Text: as §1

[15] = tested on: Malassezia restricta ATCC MYA 4611
Text: as §1

SMILES | Minimum Inhibitory Concentration [1] [%] | Minimum Inhibitory Concentration [2] [%] | Minimum Inhibitory Concentration [3] [%] | Minimum Inhibitory Concentration [4] [%] | Minimum Inhibitory Concentration [5] [%] | Minimum Inhibitory Concentration [6] [%] | Minimum Inhibitory Concentration [7] [%] | Minimum Inhibitory Concentration [8] [%] | Minimum Inhibitory Concentration [9] [%] | Minimum Inhibitory Concentration [10] [%] | Minimum Inhibitory Concentration [11] [%] | Minimum Inhibitory Concentration [12] [%] | Minimum Inhibitory Concentration [13] [%] | Minimum Inhibitory Concentration [14] [%] | Minimum Inhibitory Concentration [15] [%]
CCCCCCCC(=O)NCC(=O)O [CG, N-capryloyl glycine] | 0.6 | 0.3 | 1 | 0.7 | 1 | 1 | 1 | 1 | 1. | 0.09 | 0.5 | 1 | 1 | 1 | 0.4
C=CCCCCCCCCC(=O)NCC(=O)O [UG, N-undecylenoyl glycine] | 1 | 0.2 | 1 | 0.9 | 1 | 0.6 | 0.4 | 0.9 | 0.7 | 0.06 | 0.5 | 1 | 0.5 | 1 | 0.4
